“Also recorded” adds a separate entry of the source.

The values below come from US20230398124A1, “SEVEN-MEMBERED RING COMPOUNDS AND METHOD OF USE THEREOF” (Invea Therapeutics, Inc., priority 2022, published 2023).

For assay [1], the system named is DSS-induced colitis C57Bl/6N mice. Description: DSS-induced colitis mouse model (body weight loss, occult blood, stool consistency, DAI). It is filed as in vivo. The conditions noted are these: for DAI score: 20 mg/kg i.p. QD day 3 to 9, 0-4 scale, DSS vehicle 3 and above; for body weight loss (score) / occult blood score / rectal bleeding / stool consistency score / diarrhea: i.p. QD day 3 to 9, Compound 1 20 mg/kg, anti-TNF 15 mg/kg, observed 0-10 days. As to the method:
Animal: For the DSS-induced acute model of experimental colitis, 8-week-old C57Bl/6N mice (weight between 17 and 20 grams, all females from Charles River Laboratories) were used. All mice were maintained in a temperature-controlled environment (20° C.±4° C.) with 12:12-hour light/dark cycles, relative humidity was maintained at 55%±10%, ventilation with 8-10 air changes per hour and fed standard chow with access to drinking water ad libitum.
Mice were treated with one oral cycles of 2.5% DSS (weight/volume) (DSS, molecular mass, 40 kDa; MP Biomedicals), characterized by 7 days of DSS exposure in drinking water, followed by 3 days of regular drinking water.
Administration of drugs: 3 days after starting DSS administration, mice were treated with testing drugs up to day 9, according to the experimental groups and the dose regimen described in table below. 0.5% (w/v) Hydroxypropyl cellulose was used as the vehicle.
From day 0 to 7, the animals received DSS in drinking water and the drugs were administered from day 3 to 9. Body weight and clinical observations such as diarrhea and bleeding from rectum were recorded daily post colitis induction until day 10.
Disease activity Index (DAI) and body weight loss were measured. Colitis severity was calculated using a disease activity index (DAI) score based on daily evaluation of body weight, stool consistency, and presence of blood in the stools, as determined using Hemoccult SENSA Cards (Beckman Coulter).
Grading of intestinal inflammation was determined according to the criteria proposed by Cooper et al (Cooper H S et al., Clinicopathologic study of dextran sulfate sodium experimental murine colitis. Lab Invest. 1993 August; 69(2):238-49, the DAI has been determined by scoring changes in variety of factors such as weight loss, stool consistency, and occult bleeding. The weight loss score ranges from 0 to 4, where zero signals no weight loss, score of 1 indicates the presence of 1-5% weight loss, a score of 2 signals the presence of 5-10% weight loss, a score of 3 signals the presence of 10-20% weight loss and a score of 4 represents greater than 20% weight loss. Likewise, the stool consistency score ranges from 0 to 4 with a score of zero representing normal stools, a score of 2 represents loose stools and a score of 4 represents diarrhea. The rectal bleeding is observed by scores ranging from 0 to 4, where a score of zero represents normal or no significant bleeding, a score of 2 indicates the presence of occult bleeding and a score of 4 indicates the presence of gross bleeding. A 5-point (0-4) DAI was obtained by calculating an average of body weight score, stool consistency and rectal bleeding.

For assay [2], the system named is Mdr2 knock out (Mdr2 KO) mice. Description: liver staining in Mdr2 KO mice: collagen deposition (Fast Green/Sirius Red), hydroxyproline, F4/80, Desmin. Type of assay: in vivo, mouse. The note with it: for portal tract F4/80 immunoreactivity (macrophage marker) / expression of desmin levels (cholangiocyte activation marker): vs untreated Mdr2 KO; for collagen deposition: Fast Green/Sirius Red staining. As for the experimental part: Mdr2 knock out (Mdr2 KO) mice are a genetic mouse model of PSC and display similar phenotypes to human PSC. Collagen content, ductular reaction and inflammation are elevated in Mdr2 knock out mice. Mdr2 KO mice also have enhanced mast cell (MC) presence. Total bile acid (TBA) content increases in Mdr2 knock out mice. Accumulation of chymase and tryptase positive mast cells (MC) in the liver was evaluated by immunohistochemistry. Metabolic parameters such as Total Bile Acids (serum and liver), Ductular Reaction (CK-19), Hepatic Fibrosis (Fast Green Sirius Red staining), Collagen deposition, Hydroxyproline levels, Fibrotic Gene Markers, cholangiocyte Activation (Desmin), inflammation and mast cell products, (F4/80, which is a macrophage marker) and Senescence and SASP markers (TGF-β1, p21, p16) are measured to determine the effect of compound 1 in mouse model of hepatobiliary disease.
(§1) Animal: 10-12 weeks old Mdr2 homozygous knockout (Mdr2 KO) mice were raised on FVB/NJ background. All mice were maintained in a temperature-controlled environment (20° C. to 22° C.) with 12:12-hour light/dark cycles and fed standard chow with access to drinking water ad libitum.
Fibrosis in liver was evaluated by quantitatively estimating collagen deposition with Fast green and Sirius red staining of formalin fixed paraffin-embedded liver sections ([…]). Hepatic fibrosis and collagen deposition is evaluated by quantitative Fast Green/Sirius Red staining. Macrophage accumulation was determined by staining for F4/80 antibody. (See FIG. 4) Cholangiocyte activation was analyzed by immunofluorescence for Desmin (See FIG. 5) and CK19 (marker for cholangiocytes). (See FIG. 9)

For assay [3], the system named is Mdr2 knock out (Mdr2 KO) mice. Description: liver and serum total bile acid accumulation in Mdr2 KO mice, colorimetric assay. The note with it: 20 mg/kg i.p. Type of assay: in vivo, mouse. As to the method:
as §1
Liver and serum bile acid accumulation was evaluated by using a colorimetric assay from Crystal Chem Inc (cat #80471). For Liver, total bile acid (TBA) was extracted from homogenized liver. For serum, (TBAs) were measured in serum by enzyme immunoassay (EIA). 3-alpha-hydroxysteroid dehydrogenase and Nicotinamide adenine dinucleotide (NAD) converted TBA into 3-keto steroids and NADH. The NADH reacts with nitroblue tetrazolium (NBT) to form a dye and this is measured at 540 nm absorbance.

Assay [4] deals with Mdr2 knock out (Mdr2 KO) mice. Description: quantitative real time PCR of mast cell, pro-fibrotic and biliary senescence markers in liver of Mdr2 KO mice. It is filed as in vivo, mouse. The conditions noted are these: for Timp2 expression (pro-fibrotic marker): Mdr2 KO = 3.41885191, p<0.0001. As to the method:
as §1
Liver inflammation, fibrosis and biliary senescence was evaluated in liver sections by quantitative real time PCR for mast cell markers such as Mcpt1, Fcer1a, Tpsb2 (See FIG. 3) and pro-fibrotic markers such as Col1a1, Timp2 and Tgfb1, (See FIG. 8)_biliary senescence markers such as Cdkn2a, Cdkn2c, Tgfb1 & Gl1bl. (See FIG. 10). Liver tissue was lysed, and total RNA was isolated using trizol and fold change was calculated using ΔΔCt method.

The test system of assay [5] is Mdr2 knock out (Mdr2 KO) mice. The note with it: 20 mg/kg i.p., vs untreated Mdr2 KO. As to the method: Mdr2 knock out (Mdr2 KO) mice are a genetic mouse model of PSC and display similar phenotypes to human PSC. Collagen content, ductular reaction and inflammation are elevated in Mdr2 knock out mice. Mdr2 KO mice also have enhanced mast cell (MC) presence. Total bile acid (TBA) content increases in Mdr2 knock out mice. Accumulation of chymase and tryptase positive mast cells (MC) in the liver was evaluated by immunohistochemistry.
as §1

For the compound `CCC[C@@H](NC(=O)N1C/C(=N/OCC)NC[C@H](Cc2cc(Cl)ccc2OC)C1=O)c1ccc(C(=O)O)c(N)c1` [Compound 1 monoacetic acid solvate, 2-amino-4-[(1R)-1-({[(3Z,6S)-6-(5-chloro-2-methoxybenzyl)-3-(ethoxyimino)-7-oxo-1,4-diazepan-1-yl]carbonyl}amino)butyl]benzoic acid monoacetic acid solvate], the DAI score entry in assay [1] is “decrease”. Also, the “body weight loss (score)” value in assay [1] was “reduction in the body weight loss; also recorded: decrease”. In addition, in assay [1], the “occult blood score / rectal bleeding” value is “reduction in bleeding; also recorded: decrease”. Besides, the “stool consistency score / diarrhea” value in assay [1] is recorded as “reduction in diarrhea; also recorded: decrease”. Moreover, the hydroxyproline accumulation was 4.219 in assay [2] (10 mg/kg i.p., Mdr2 KO = 4.871969, p=0.6426) and 2.972 in assay [2] (20 mg/kg i.p., Mdr2 KO = 4.871969, p=0.0078). Besides, the “portal tract F4/80 immunoreactivity (macrophage marker)” value in assay [2] (20 mg/kg i.p.) is on record as “decrease”. The figures for the collagen deposition result in assay [2] and in assay [2] (listed as compound 1 monoacetic acid solvate) were “restricted” and “decrease”, respectively. Besides, the “expression of desmin levels (cholangiocyte activation marker)” value in assay [2] is reported as “decrease”. In addition, the “Liver total bile acid content” value in assay [3] (Mdr2 KO vehicle = 3.498252, p<0.0001) was 1.797 µM. For the same compound, the “serum bile acid content” value in assay [3] (Mdr2 KO vehicle = 62.04502, p<0.0001) amounted to 26.24 µM. For the same compound, the “Tgfb1 expression (pro-fibrotic marker)” value turned out to be 1.133 fold change in assay [4] (10 mg/kg i.p., Mdr2 KO = 1.72254177, p=0.0138) and 0.8986 fold change in assay [4] (20 mg/kg i.p., Mdr2 KO = 1.72254177, p=0.0018). Also, the “Fcer1 expression (mast cell marker)” value in assay [4] (10 mg/kg i.p., Mdr2 KO = 2.20989385, p=0.0058) is given as 1.532 fold change; in assay [4] (20 mg/kg i.p., Mdr2 KO = 2.20989385, p<0.0001), 0.8866 fold change. Further, the “Tpsb2 expression (mast cell marker)” value in assay [4] (10 mg/kg i.p., Mdr2 KO = 2.21107066, p=0.8750) turned out to be 1.53 fold change; in assay [4] (20 mg/kg i.p., Mdr2 KO = 2.21107066, p=0.7774), 1.341 fold change. Also, the “Mcpt1 expression (mast cell marker)” value worked out at 0.8094 fold change in assay [4] (10 mg/kg i.p., Mdr2 KO = 2.33385383, p=0.0237) and 0.723 fold change in assay [4] (20 mg/kg i.p., Mdr2 KO = 2.33385383, p=0.0178). The “Col1a1 expression (pro-fibrotic marker)” value came out at 1.509 fold change in assay [4] (10 mg/kg i.p., Mdr2 KO = 3.28243911, p=0.0005) and 0.9248 fold change in assay [4] (20 mg/kg i.p., Mdr2 KO = 3.28243911, p<0.0001). The “Timp2 expression (pro-fibrotic marker)” value in assay [4] (10 mg/kg i.p.) came out at 1.539 fold change; in assay [4] (20 mg/kg i.p.), 0.9494 fold change. In addition, the “Tgfb1 expression (senescence marker)” value in assay [4] (20 mg/kg i.p., Mdr2 KO = 4.188847, p=0.0002) stood at 1.821 fold change. Moreover, the “Glb1l expression (senescence marker)” value in assay [4] (20 mg/kg i.p., Mdr2 KO = 13.02486, p=0.0001) is listed as 3.319 fold change. Moreover, the “Cdkn2c expression (senescence marker)” value in assay [4] (20 mg/kg i.p., Mdr2 KO = 16.05029, p=0.0050) turned out to be 12.66 fold change. In addition, the “Cdkn2a expression (senescence marker)” value in assay [4] (20 mg/kg i.p., Mdr2 KO = 21.49752, p<0.0001) amounted to 3.739 fold change. Moreover, the “level of inflammatory marker Tpbs2” value in assay [5] is listed as “significantly reduced”. Also, the “level of inflammatory marker mMCP1” value in assay [5] is “significantly reduced”.

`CCC[C@@H](NC(=O)N1C/C(=N/OCC)NC[C@H](Cc2cc(Cl)ccc2OC)C1=O)c1ccc(C(=O)O)c(N)c1` [Compound 1, 2-amino-4-[(1R)-1-({[(3Z,6S)-6-(5-chloro-2-methoxybenzyl)-3-(ethoxyimino)-7-oxo-1,4-diazepan-1-yl]carbonyl}amino)butyl]benzoic acid]: the colon length reduction result in assay [1] (20 mg/kg i.p. QD day 3 to 9) is “significantly inhibits”. In addition, the DAI score result in assay [1] (20 mg/kg) is listed as “significantly attenuated”. The DAI score in assay [1] (listed as compound 1, 20 mg/kg) is given as less than 2. For the same compound, in assay [1], the “body weight loss (score)” value was “significantly attenuated”, the “occult blood score / rectal bleeding” value is on record as “significantly attenuated” and the “stool consistency score / diarrhea” value was “significantly attenuated”. Further, the “portal tract F4/80 immunoreactivity (macrophage marker)” value in assay [2] (20 mg/kg i.p.) is listed as “reduces”. The “expression of desmin levels (cholangiocyte activation marker)” value in assay [2] was “reduction”.
